Assay results from patent US7754064B2, “Methods and apparatus for the on-site production of hydrogen peroxide” (Eltron Research & Development, priority 2006, dated 2010).

Columns and labels:
[1] = test system: mixed plankton
Description: This study largely entailed LD50 and LD100 lethality screening of the target chemistry produced by the electrolytic system under development to natural marine organisms. Specifically, the work focused on organisms with sizes of less than 100 μm as larger organisms can be readily eliminated by other technologies (screening or hydrocyclones). Within this size regime normal crustaceans, planktons, and etc. obtained by trawling were targeted. […] For the trawled organisms and the protozoan, destruction was noted by lack of motility.
Mixed indigenous zooplankton (these provided random samples of a variety of organisms as might be encountered in ballast water) were obtained by plankton trawls from the waters off Woods Hole, Mass. and the toxicity assays focused on zooplankton (such as dinoflagellates which are less prone to sedimentation than say diatoms) where viability could be readily assessed through motility monitoring. After the samples were collected they were counted and separated into sample populations under a dissecting scope with a low heat lamp using standard techniques. […]
Toxicity studies were performed on the targeted plankton samples by exposing them to synthetic cell product and monitored until mortality occurred. […]

[2] = test system: Vibrio hollisae; conditions: 20° C., 3-50 ppm H2O2, 6-30 minutes exposure
Protocol: A stock culture of Vibrio hollisae was diluted to 1×10-5 with micropore filtered seawater (FSW). The dilution was calculated to yield a sample density of roughly 350 CFUs/mL after 48 hr of grow up. The experimental matrix consisted of peroxide concentration versus exposure time. The bacteria were exposed to the peroxide in liquid cultures, and then the treated bacteria were plated onto agar plates and colony counts done at 24 and 48 hrs. Data were analyzed for LD-100 conditions for maximal effect at lowest concentration and shortest exposure time. Six tubes of 5 mL bacterial culture were prepared. […] A control sample containing NO peroxide was also prepared. At each treatment exposure time point (6, 10, 15, and 30 minutes respectively), 1 mL was removed from each tube and filtered through a mixed cellulose ester filter (0.45 micron pore size, 47 mm dia., Fisher #09-719-1A). Each filter was then placed onto a TCBS (thiosulfate, citrate, bile, and sucrose) media plate and incubated for 48 hr at room temperature (23° C.). Standard colony counts were then made for the entire filter for each treatment condition. The procedure was repeated in triplicate. For each repetition, three separate samples (batches) were prepared and two duplicate trials were run for each batch sample. The results were statistically analyzed using ANOVA and paired student t-test paired comparisons. […]

[3] = test system: QPX (Quahog Parasite-X)
Protocol: For the QPX studies, a stock QPX culture (Quahog Parasite-X, a protista slime mold causing shellfish disease) was washed three times in sterile nature seawater (NSW) to remove the nutrient media and disperse the encapsulating mucous mass. The washed sample was then re-suspended in sterile NSW (working culture). A sample aliquot was removed and diluted (1:1) in sterile NSW to determine the actual cell density. […] A control sample with NO peroxide in the treatment solution was also prepared. […] After incubation (48 hrs) the remainder of the innocula were centrifiged at 10,000 G for 2 minutes. All fluid was removed from the tube to leave a final volume of 100 μL. Propidium iodide (100 μL; 20 g/mL) was added to each tube and allowed to sit for 30 minutes in the dark at room temperature. The tubes were then centrifuged (10,000 G for 2 minutes) and the resulting pellet washed three times with filtered NSW (250 μL). After the third wash, 200 μL of fluid was removed from each tube and the pellet was re-suspended in the remaining 50 μL of fluid. The fluids generated from this preparation were added to a Neubauer hemocytometer counting chamber and the cell concentrations were determined between treatments. […]

[4] = test system: Perkinsus marinus; conditions: treatment time 30 minutes, four trials
Protocol: The final series of trials explored the effectiveness of the treatment against the protozoan Perkinsus marinus which is pathogenic to shellfish and causes the disease Dermo. Essentially the same protocol used for QPX was adapted to Perkinsus and represented a novel method of determining Perkinsus viability after disinfection treatments. Here four duplicate trials were run, again with a treatment time of 30 minutes.

[5] = test system: Pseudomonas cepacia; conditions: alkaline solutions of 1000 ppm H2O2, filtration units
[6] = test system: biofouling; conditions: cited from earlier work

OO [hydrogen peroxide]
time*dosage factor for plankton kill ([1]; mixed plankton, 4, 10 and 20° C., from LD-50 and LD-100, averaged over four concentrations): 1000 to 3000 ppm min.
LD50's as percent of 100% mortality times ([1]; mixed zooplankton in natural seawater with added H2O2): 40-50%
time dosage values sufficient to achieve 2 log kills (99%) [2]: 1000 to 2000 ppm min.
average viable cell count ([3]; 10 ppm H2O2, 30 min., 20° C., average of two trials): 430 cells/L
resistance to the treatment compared with general plankton and Vibrio ssp. ([3]; 30 minutes treatment, 0-150 ppm): slightly more resistant
time*dosage values sufficient to reduce occurrence of Perkinsus to hinder spread of disease [4]: 1500 to 5000 ppm
Pseudomonas cepacia eliminated [5]: more than 100%
log kill of Pseudomonas cepacia [5]: 7 log
concentration typically required for sufficient effectiveness in sterilization ([6]; industrial disinfection (powerplant biofouling, sewage treatment)): 50-200 ppm
concentration that can be effective towards fouling control ([6]; recent data): 2 ppm
